Drawing on ChEMBL document CHEMBL1921701, “Synthesis of GSK3β mimetic inhibitors of Akt featuring a novel extended dipeptide surrogate” (Bioorg Med Chem Lett, 2011), this text covers IC50, inhibition and Activity for 8 molecules.

In assay [1] the target is T1, RAC-alpha serine/threonine-protein kinase (Homo sapiens, UniProt P31749). Briefly: Inhibition of His-tagged ATP-binding domain of AKT1 assessed as GRPRTSSFAEG crosstide phosphorylation using [33P]ATP.
The target in assay [2] is T1, RAC-alpha serine/threonine-protein kinase. Put plainly: Inhibition of His-tagged ATP-binding domain of AKT1 assessed as residual activity by measuring GRPRTSSFAEG crosstide phosphorylation at 50 uM using [33P]ATP.

Structures are written as SMILES.

The term IC50 denotes the concentration at which inhibition is half-maximal.

T1 sequence (P31749 whole entry, the tested form may be a part): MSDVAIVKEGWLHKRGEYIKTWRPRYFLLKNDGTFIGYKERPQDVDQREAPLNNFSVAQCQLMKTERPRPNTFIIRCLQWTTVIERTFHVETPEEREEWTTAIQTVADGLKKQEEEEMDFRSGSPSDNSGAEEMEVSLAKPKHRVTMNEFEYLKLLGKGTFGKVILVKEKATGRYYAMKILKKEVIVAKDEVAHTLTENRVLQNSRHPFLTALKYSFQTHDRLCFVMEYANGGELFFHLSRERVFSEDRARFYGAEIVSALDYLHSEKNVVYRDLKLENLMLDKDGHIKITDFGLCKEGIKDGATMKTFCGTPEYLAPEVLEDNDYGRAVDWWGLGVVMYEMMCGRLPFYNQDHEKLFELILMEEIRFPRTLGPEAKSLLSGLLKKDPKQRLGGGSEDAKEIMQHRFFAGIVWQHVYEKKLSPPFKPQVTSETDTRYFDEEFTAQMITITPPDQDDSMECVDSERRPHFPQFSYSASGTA

On to `CC(C)[C@H](NC(=O)[C@@H]1CC[C@H]2[C@H](NC(=O)CCCCN=C(N)N)COC(=O)N12)C(=O)NC(Cc1ccccc1)C(=O)NCc1ccccc1` (mixture of isomers), for which the IC50 in assay [1] came to 40.2 µM. On to `CC(C)[C@H](NC(=O)[C@@H]1CC[C@H]2[C@H](NC(=O)[C@H](CCCNC(=N)N)NC(=O)c3ccccc3)COC(=O)N12)C(=O)NC(Cc1ccccc1)C(=O)NCc1ccccc1` (mixture of isomers), for which, in assay [1], the IC50 amounted to 16.3 µM and the inhibition entry is “Dose-dependent effect”. Besides, the Activity in assay [2] amounted to 14.6%. As for `CC(C)[C@H](NC(=O)[C@@H]1CC[C@H]2[C@H](NC(=O)[C@H](CCCN=C(N)N)NC(=O)Cc3ccccc3)COC(=O)N12)C(=O)NC(Cc1ccccc1)C(=O)NCc1ccccc1` (mixture of isomers), in assay [1], the IC50 is 15 µM.

Regarding `CC(C)[C@H](NC(=O)[C@@H]1CC[C@H]2[C@H](NC(=O)[C@H](CCCN=C(N)N)NC(=O)OCc3ccccc3)COC(=O)N12)C(=O)NC(Cc1ccccc1)C(=O)NCc1ccccc1` (mixture of isomers), the IC50 in assay [1] worked out at 3.1 µM. Take `CC(C)[C@H](NC(=O)[C@@H]1CC[C@H]2[C@H](NC(=O)CCCCNC(=N)N)COC(=O)N12)C(=O)NC(Cc1ccccc1)C(=O)NCc1ccccc1` (mixture of isomers): in assay [1], the inhibition result is “Dose-dependent effect”. The Activity in assay [2] was 21.1%. For `CC(C)[C@H](NC(=O)[C@@H]1CC[C@H]2[C@H](NC(=O)CNC(=N)N)COC(=O)N12)C(=O)NC(Cc1ccccc1)C(=O)NCc1ccccc1` (mixture of isomers), in assay [2], the Activity amounted to 89.4%.

Turning to `CC(C)[C@H](NC(=O)[C@@H]1CC[C@H]2[C@H](NC(=O)[C@H](CCCNC(=N)N)NC(=O)Cc3ccccc3)COC(=O)N12)C(=O)NC(Cc1ccccc1)C(=O)NCc1ccccc1` (mixture of isomers), the inhibition entry in assay [1] is “Dose-dependent effect”. Further, the Activity in assay [2] was 16.8%. In the same order, the values of `CC(C)[C@H](NC(=O)[C@@H]1CC[C@H]2[C@H](NC(=O)[C@H](CCCNC(=N)N)NC(=O)OCc3ccccc3)COC(=O)N12)C(=O)NC(Cc1ccccc1)C(=O)NCc1ccccc1` (mixture of isomers) are “Dose-dependent effect” and 2.2%.
